Laboratory results: ChEMBL document CHEMBL3407472, “Multi-parameter optimization of aza-follow-ups to BI 207524, a thumb pocket 1 HCV NS5B polymerase inhibitor. Part 2: Impact of lipophilicity on promiscuity and in vivo toxicity” (Bioorg Med Chem Lett, 2015)
Blank lines part the entries; values can stand above or below the molecule they belong to.

What was measured:
[1] = Half life in human liver microsomes at 2 uM; type: ADME
[2] = Lipophilicity, log D of the compound at pH 7.4; type: physicochemical; conditions: buffer
[3] = Permeability from apical to basolateral side of human Caco2 cells; type: ADME, cell-based; conditions: Caco-2, read-out: permeability
[4] = tested on: Hepatitis C virus; assay: Antiviral activity against Hepatitis C virus genotype 1b infected in human Huh cells assessed as inhibition of viral replication by RT-PCR-based replicon assay; type: functional, cell-based, Hepacivirus hominis
[5] = tested on: Hepatitis C virus; assay: Antiviral activity against Hepatitis C virus genotype 1a infected in human Huh cells assessed as inhibition of viral replication by RT-PCR-based replicon assay; type: functional, cell-based, Hepacivirus hominis; conditions: subtype 1a
[6] = Plasma concentration in rat at 2 mg/kg, po each in 0.5% Methylcellulose and 0.3% Tween-80 and 1% N-methylpyrrolidone after 1 hr; type: ADME, organism-based; parameters: dose 2 mg/kg, route oral
[7] = Lipophilicity, log D of the compound; type: physicochemical; conditions: octanol/water
[8] = Plasma concentration in rat at 2 mg/kg, po each in 0.5% Methylcellulose and 0.3% Tween-80 and 1% N-methylpyrrolidone after 2 hrs; type: ADME, organism-based; parameters: dose 2 mg/kg, route oral
[9] = Half life in rat liver microsomes at 2 uM; type: ADME
[10] = Cmax in rat at 2 mg/kg, po each in 0.5% Methylcellulose and 0.3% Tween-80 and 1% N-methylpyrrolidone; type: ADME, organism-based; parameters: dose 2 mg/kg, route oral; conditions: in vivo
[11] = Half life in dog liver microsomes at 2 uM; type: ADME, Canis lupus familiaris
[12] = Clearance in rat at 5 mg/kg, po and 2 mg/kg, iv; type: ADME, organism-based; conditions: in vivo
[13] = Half life in cynomolgous monkey at 5 mg/kg, po and 2 mg/kg, iv; type: ADME, organism-based, Macaca fascicularis; conditions: cynomolgus monkey, in vivo
[14] = Clearance in cynomolgous monkey at 5 mg/kg, po and 2 mg/kg, iv; type: ADME, organism-based, Macaca fascicularis; conditions: cynomolgus monkey, in vivo
[15] = AUC in dog at 5 mg/kg, po and 2 mg/kg, iv; type: ADME, organism-based, Canis lupus familiaris; conditions: plasma
[16] = Bioavailability in dog at 5 mg/kg, po and 2 mg/kg, iv; type: ADME, organism-based, Canis lupus familiaris; conditions: in vivo
[17] = AUC in cynomolgous monkey at 5 mg/kg, po and 2 mg/kg, iv; type: ADME, organism-based, Macaca fascicularis; conditions: cynomolgus monkey, plasma
[18] = Volume of distribution at steady state in rat at 5 mg/kg, po and 2 mg/kg, iv; type: ADME, organism-based; conditions: in vivo, read-out: Vdss
[19] = Cmax in cynomolgous monkey at 5 mg/kg, po and 2 mg/kg, iv; type: ADME, organism-based, Macaca fascicularis; conditions: cynomolgus monkey, in vivo
[20] = Bioavailability in cynomolgous monkey at 5 mg/kg, po and 2 mg/kg, iv; type: ADME, organism-based, Macaca fascicularis; conditions: cynomolgus monkey, in vivo
[21] = Half life in dog at 5 mg/kg, po and 2 mg/kg, iv; type: ADME, organism-based, Canis lupus familiaris; conditions: in vivo
[22] = AUC in rat at 5 mg/kg, po and 2 mg/kg, iv; type: ADME, organism-based; conditions: plasma
[23] = Cmax in dog at 5 mg/kg, po and 2 mg/kg, iv; type: ADME, organism-based, Canis lupus familiaris; conditions: in vivo
[24] = Half life in rat at 5 mg/kg, po and 2 mg/kg, iv; type: ADME, organism-based; conditions: in vivo
[25] = Bioavailability in rat at 5 mg/kg, po and 2 mg/kg, iv; type: ADME, organism-based; conditions: in vivo
[26] = Cmax in rat at 5 mg/kg, po and 2 mg/kg, iv; type: ADME, organism-based; conditions: in vivo
[27] = Half life in cynomolgous monkey liver microsomes at 2 uM; type: ADME, Macaca fascicularis; conditions: cynomolgus monkey
[28] = Volume of distribution at steady state in cynomolgous monkey at 5 mg/kg, po and 2 mg/kg, iv; type: ADME, organism-based, Macaca fascicularis; conditions: cynomolgus monkey, in vivo, read-out: Vdss
[29] = Ratio of drug uptake in liver to plasma of rat at 5 mg/kg, po and 2 mg/kg, iv after 6 to 8 hrs; type: ADME, organism-based
[30] = Clearance in dog at 5 mg/kg, po and 2 mg/kg, iv; type: ADME, organism-based, Canis lupus familiaris; conditions: in vivo
[31] = Volume of distribution at steady state in dog at 5 mg/kg, po and 2 mg/kg, iv; type: ADME, organism-based, Canis lupus familiaris; conditions: in vivo, read-out: Vdss
[32] = biological target: Voltage-gated inwardly rectifying potassium channel KCNH2 (Homo sapiens, UniProt Q12809); assay: Inhibition of human ERG channel
Sequence of Voltage-gated inwardly rectifying potassium channel KCNH2 (Q12809 whole entry): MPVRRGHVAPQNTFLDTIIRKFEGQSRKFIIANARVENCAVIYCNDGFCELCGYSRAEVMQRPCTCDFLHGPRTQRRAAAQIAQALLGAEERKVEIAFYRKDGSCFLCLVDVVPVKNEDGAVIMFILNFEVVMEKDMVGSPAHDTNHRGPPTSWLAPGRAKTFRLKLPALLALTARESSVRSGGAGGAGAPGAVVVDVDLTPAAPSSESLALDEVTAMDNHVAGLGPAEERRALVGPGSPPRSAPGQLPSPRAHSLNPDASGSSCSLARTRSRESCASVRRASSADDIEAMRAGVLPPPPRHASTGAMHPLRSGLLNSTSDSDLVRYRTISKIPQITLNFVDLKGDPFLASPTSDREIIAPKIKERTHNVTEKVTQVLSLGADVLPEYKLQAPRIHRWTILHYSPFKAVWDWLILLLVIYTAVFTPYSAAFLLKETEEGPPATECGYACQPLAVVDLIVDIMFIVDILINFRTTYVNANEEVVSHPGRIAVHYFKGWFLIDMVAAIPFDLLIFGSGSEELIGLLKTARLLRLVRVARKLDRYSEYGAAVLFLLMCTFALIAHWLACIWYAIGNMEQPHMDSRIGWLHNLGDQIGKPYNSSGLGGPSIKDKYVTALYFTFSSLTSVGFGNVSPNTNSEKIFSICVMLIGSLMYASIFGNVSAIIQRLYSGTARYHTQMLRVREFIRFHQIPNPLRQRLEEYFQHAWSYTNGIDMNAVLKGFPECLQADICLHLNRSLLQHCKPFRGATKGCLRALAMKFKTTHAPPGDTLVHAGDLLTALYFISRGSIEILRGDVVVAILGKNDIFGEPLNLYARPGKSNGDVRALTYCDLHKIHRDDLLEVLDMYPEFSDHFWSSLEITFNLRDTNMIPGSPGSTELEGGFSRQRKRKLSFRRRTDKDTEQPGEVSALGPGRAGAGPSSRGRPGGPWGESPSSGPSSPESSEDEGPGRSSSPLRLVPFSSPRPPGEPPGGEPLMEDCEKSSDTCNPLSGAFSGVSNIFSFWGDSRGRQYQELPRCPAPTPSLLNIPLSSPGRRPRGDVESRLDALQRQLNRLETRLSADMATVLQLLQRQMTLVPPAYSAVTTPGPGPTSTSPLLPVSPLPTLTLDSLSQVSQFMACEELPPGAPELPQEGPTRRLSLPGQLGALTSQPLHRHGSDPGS

Structure (SMILES): COc1nc(NC(=O)C(C)(C)NC(=O)c2ccc3c(C4CCCC4)c(-c4cncnc4)n(C)c3c2)ccc1/C=C/C(=O)O
EC50 [5]: 72 nM
logD [2]: 2.2
EC50 [4]: 23 nM

Structure (SMILES): CCOc1nc(NC(=O)C2(NC(=O)c3ccc4c(C5CCCC5)c(-c5ccccn5)n(C)c4c3)CCC2)cnc1/C=C/C(=O)O
concentration at 1 h [6]: 500 nM
half-life at 2 µM [1]: 1.78 h
logD [2]: 3.1
logD [7]: 3.1
concentration at 2 h [8]: 200 nM
half-life at 2 µM [9]: 0.617 h
EC50 [4]: 13 nM

Structure (SMILES): COc1nc(NC(=O)C2(NC(=O)c3ccc4c(c3)c(C)c(-c3ccc(F)cn3)n4C3CCCCC3)CCCC2)cnc1/C=C/C(=O)O
EC50 [5]: 54 nM
logD [2]: 3.2
EC50 [4]: 14 nM

Structure (SMILES): CCOc1nc(NC(=O)C(C)(C)NC(=O)c2ccc3c(C4CCCC4)c(-c4cncnc4)n(C)c3c2)ccc1/C=C/C(=O)O
concentration at 1 h [6]: 200 nM
half-life at 2 µM [1]: 1.15 h
logD [2]: 3
logD [7]: 3
concentration at 2 h [8]: 100 nM
half-life at 2 µM [9]: 1.27 h
EC50 [4]: 12 nM

Structure (SMILES): COc1nc(NC(=O)C(C)(C)NC(=O)c2ccc3c(C4CCCC4)c(-c4ccc(F)cn4)n(C)c3c2)ccc1/C=C/C(=O)O
EC50 [5]: 67 nM
logD [2]: 3.3
EC50 [4]: 12 nM

More lines, in order of falling EC50 [4], values ahead:

EC50 [5]: 63 nM
logD [2]: 3.1
EC50 [4]: 12 nM
Structure (SMILES): CCOc1nc(NC(=O)C2(NC(=O)c3ccc4c(c3)c(C)c(-c3ccc(F)cn3)n4C3CCCCC3)CCC2)cnc1/C=C/C(=O)O

half-life at 2 µM [1]: 0.667 h
logD [2]: 4.4
Papp A→B [3]: 21 ×10⁻⁶ cm/s
EC50 [4]: 11 nM
Structure (SMILES): CCOc1nc(NC(=O)C2(NC(=O)c3ccc4c(C5CCCC5)c(-c5ccccn5)n(C)c4c3)CCC2)ccc1/C=C/C(=O)O

half-life at 2 µM [11]: 2.52 h
clearance [12]: 4.9 mL/min/kg
half-life [13]: 2.3 h
clearance [14]: 4.6 mL/min/kg
AUC [15]: 48 µM·h
bioavailability [16]: 61%
AUC [17]: 12 µM·h
Vd [18]: 0.44 L/kg
Cmax [19]: 3800 nM
bioavailability [20]: 44%
half-life [21]: 5.1 h
half-life at 2 µM [1]: 1.37 h
AUC [22]: 11 µM·h
Cmax [23]: 8600 nM
half-life [24]: 2.1 h
EC50 [5]: 24 nM
bioavailability [25]: 44%
logD [2]: > 4.7
Cmax [26]: 5000 nM
half-life at 2 µM [27]: 0.433 h
Vd [28]: 0.47 L/kg
Papp A→B [3]: 14 ×10⁻⁶ cm/s
Kp [29]: 6
clearance [30]: 1.9 mL/min/kg
half-life at 2 µM [9]: 0.95 h
Vd [31]: 0.36 L/kg
EC50 [4]: 10 nM
Structure (SMILES): CCOc1nc(NC(=O)C2(NC(=O)c3ccc4c(C5CCCC5)c(-c5ccc(F)cn5)n(C)c4c3)CCC2)ccc1/C=C/C(=O)O
IC50 [32]: 2100 nM

half-life at 2 µM [1]: 0.55 h
logD [2]: 3.6
Papp A→B [3]: 13 ×10⁻⁶ cm/s
EC50 [4]: 8 nM
Structure (SMILES): CCOc1nc(NC(=O)C2(NC(=O)c3ccc4c(C5CCCC5)c(-c5cnccn5)n(C)c4c3)CCC2)ccc1/C=C/C(=O)O

half-life at 2 µM [1]: 4.6 h
logD [2]: 2.6
logD [7]: 2.6
concentration at 2 h [8]: 660 nM
half-life at 2 µM [9]: > 5 h
Cmax [10]: 660 nM
EC50 [4]: 6 nM
Structure (SMILES): CCOc1nc(NC(=O)C(C)(C)NC(=O)c2ccc3c(C4CCCC4)c(-c4ccc(Cl)cn4)n(C)c3c2)cnc1/C=C/C(=O)O

EC50 [5]: 27 nM
logD [2]: 4.3
EC50 [4]: 6 nM
Structure (SMILES): CCOc1nc(NC(=O)C2(NC(=O)c3ccc4c(C5CCCC5)c(-c5ncc(Cl)cn5)n(C)c4c3)CCCC2)cnc1/C=C/C(=O)O

EC50 [5]: 9 nM
logD [2]: 4.4
EC50 [4]: 5 nM
Structure (SMILES): CCOc1nc(NC(=O)C(C)(C)NC(=O)c2ccc3c(C4CCCC4)c(-c4ccc(Cl)cn4)n(C)c3c2)ccc1/C=C/C(=O)O
